Values quoted from earlier work as cited in patent US20220047724A1, “NOVEL TRICARBOCYANINE-CYCLODEXTRIN(S) CONJUGATES AND USE THEREOF” (CYANAGEN S.R.L., priority 2014, published 2022).
Where two headings read alike, the source gives them in different places.

Experiments:
[1] = Sigma-Aldrich Product No. H-107, vendor data

Row | Substance | Water solubility [1] [g/100 mL] | Toxicity (mice; mouse, in vivo) | Toxicity (rabbits; rabbit, in vivo) | Toxicity (mice; mice) | Toxicity (rabbits; rabbits)
1 | 2-hydroxypropyl-β-cyclodextrin [HβCD] | 45 | non-toxic | non-toxic | – | –
2 | 2-hydroxypropyl-γ-cyclodextrin [HγCD] | – | – | – | non-toxic | non-toxic
